Calls of active or inactive are those of the source.
Assays:
[1] = Luminescence Cell-Based Dose Confirmation HTS to Identify Inhibitors of Platelet Dense Granule Release. [Related pubchem assays: 1663 (Primary HTS), 1678 (Summary of Project)]; format: functional
[2] = molecular target: Luciferin 4-monooxygenase (Photinus pyralis, UniProt P08659); experiment: inhibition of purified Photinus pyralis luciferase – biochemical, luminescence, dose response (AID 1891)
[3] = Luminescence-based cell-based high throughput dose response assay to identify activators of the DAF-12 from the parasite S. stercoralis (ssDAF-12).; format: functional
[4] = molecular target: T1, Oxysterols receptor LXR-beta (Homo sapiens, UniProt P55055); experiment: LXR agonists, Gal4 luciferase reporter, dose response, counter-screen for ssDAF-12 agonist project, cell-based, luminescence, HEK293, S. stercoralis campaign (AID 720737); format: functional; settings: read-out: IC50 (the source's name)
T1 sequence (P55055 whole entry): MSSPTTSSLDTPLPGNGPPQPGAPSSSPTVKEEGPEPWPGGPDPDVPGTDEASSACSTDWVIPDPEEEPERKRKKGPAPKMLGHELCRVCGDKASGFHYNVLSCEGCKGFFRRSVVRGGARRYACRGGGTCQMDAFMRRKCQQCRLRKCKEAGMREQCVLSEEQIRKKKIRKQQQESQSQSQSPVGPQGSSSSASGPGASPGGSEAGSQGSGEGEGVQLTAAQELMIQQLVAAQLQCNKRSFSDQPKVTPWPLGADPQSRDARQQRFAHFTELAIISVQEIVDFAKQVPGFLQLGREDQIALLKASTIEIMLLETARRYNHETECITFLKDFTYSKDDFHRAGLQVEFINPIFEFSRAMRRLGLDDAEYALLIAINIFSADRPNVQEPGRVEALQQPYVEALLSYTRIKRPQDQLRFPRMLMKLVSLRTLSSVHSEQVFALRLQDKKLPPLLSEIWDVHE

[5] = molecular target: T1, Oxysterols receptor LXR-beta; format: functional, cell-based
[6] = inhibition of ADAM10 peptide cleavage – biochemical, FRET peptide substrate, recombinant human ADAM10, selectivity assay for ADAM17 exosite inhibitor project, dose response (AID 743259);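 further: ADAM10 enzyme cleaving a FRET peptide substrate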
[7] = molecular target: Disintegrin and metalloproteinase domain-containing protein 17 (Homo sapiens, UniProt P78536); experiment: exosite inhibitors of ADAM17, dose response, biochemical (AID 743260)
Sequence of Disintegrin and metalloproteinase domain-containing protein 17 (P78536 whole entry, the tested form may be a part): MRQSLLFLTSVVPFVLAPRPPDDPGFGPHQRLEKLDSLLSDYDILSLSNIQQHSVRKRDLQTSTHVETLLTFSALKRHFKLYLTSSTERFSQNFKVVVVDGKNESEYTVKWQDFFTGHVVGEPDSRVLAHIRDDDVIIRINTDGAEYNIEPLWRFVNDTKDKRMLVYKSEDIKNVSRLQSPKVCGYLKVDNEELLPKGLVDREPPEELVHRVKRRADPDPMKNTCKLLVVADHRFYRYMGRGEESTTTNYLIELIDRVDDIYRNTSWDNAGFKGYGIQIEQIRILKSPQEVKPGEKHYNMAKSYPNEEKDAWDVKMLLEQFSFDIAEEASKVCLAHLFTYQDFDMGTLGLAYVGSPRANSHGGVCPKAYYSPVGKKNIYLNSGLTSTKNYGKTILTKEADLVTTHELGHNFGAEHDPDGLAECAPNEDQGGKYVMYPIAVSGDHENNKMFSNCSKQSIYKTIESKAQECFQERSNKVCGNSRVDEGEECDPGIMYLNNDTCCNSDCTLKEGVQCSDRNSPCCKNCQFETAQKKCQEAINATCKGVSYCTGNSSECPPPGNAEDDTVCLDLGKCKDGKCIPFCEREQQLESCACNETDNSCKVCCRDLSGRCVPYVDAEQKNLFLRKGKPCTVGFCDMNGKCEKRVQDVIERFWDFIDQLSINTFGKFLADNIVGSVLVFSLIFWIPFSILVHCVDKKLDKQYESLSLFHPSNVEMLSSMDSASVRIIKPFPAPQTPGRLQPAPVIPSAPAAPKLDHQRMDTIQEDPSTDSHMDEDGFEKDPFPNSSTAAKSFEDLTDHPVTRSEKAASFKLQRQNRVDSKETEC

Caspase-6 = Caspase-6 (Homo sapiens, UniProt P55212); experiment: inhibition of CASP6 peptide cleavage – biochemical, VEID-R110 fluorescence, cherry-pick, dose response (AID 720632)
Sequence of Caspase-6 (P55212 24-179 limits assumed): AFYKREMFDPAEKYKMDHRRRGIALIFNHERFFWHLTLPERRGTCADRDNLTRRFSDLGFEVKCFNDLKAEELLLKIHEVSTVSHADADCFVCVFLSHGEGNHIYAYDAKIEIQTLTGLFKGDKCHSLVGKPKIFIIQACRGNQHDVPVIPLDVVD
Sequence of Caspase-6 (P55212 194-293 limits assumed): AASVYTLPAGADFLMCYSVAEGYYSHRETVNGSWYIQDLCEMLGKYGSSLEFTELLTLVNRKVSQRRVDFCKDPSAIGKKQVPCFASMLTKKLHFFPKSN

[8] = inhibition of ARNT PAS-B/TACC3 complex formation – biochemical, AlphaScreen, cherry-picked samples, confirmation (AID 651703); format: functional, Homo sapiens;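 further: His-tagged ARNT PAS-B domain paired with GST-TACC3 E629A dimer coactivator fragment; potency of inhibitors that break up the complex and lower AlphaScreen signal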
[9] = blockade of melanocortin 4 receptor signaling – cell-based, plate reader, cherry pick, counter-screen for LGR2 antagonist project, dose response (AID 743444); format: functional;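 further: transfected HEK 293 cells stimulated with alpha-MSH peptide; potency of inhibitors of the alpha-MSH evoked signal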
[10] = A549 cell cytotoxicity, dose response, cytotoxicity control, plate reader, cherry-pick, antagonist series (AID 743412); format: functional, cell-based
[11] = blockers of bursicon-stimulated LGR2 cAMP reporter – cell-based, HEK293, CRE-luciferase reporter, cherry pick, set 2, dose response (AID 743343); format: functional;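 further: transfected cells were stimulated with diluted bursicon conditioned medium after compound addition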
[12] = toxicity toward HepG2 liver cells – cell-based, plate reader, cherry-pick, antagonist series, cytotoxicity control, dose response (AID 743416); format: functional
[13] = reduced cellular PGC1a acetyl-lysine signal – cell-based, cherry-picked samples, dose response (AID 720514); format: functional;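 further: potency may reflect raised or lowered acetylation signal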
[14] = fluconazole-exposed Candida albicans growth modulators – fluorescence, retest, confirmation (AID 2467); format: functional, cell-based
[15] = Trypanosoma cruzi growth suppression in host cells – NIH3T3 host cells, beta-gal luminescence, confirmation (AID 2044); format: functional, cell-based;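 further: intracellular parasites grown in NIH/3T3 mouse fibroblasts as host cells; luminescent beta-galactosidase reporter signal from transgenic T. cruzi replicating inside host cells; inhibitors lower the luminescence signal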
[16] = NIH3T3 cell viability loss – ATP luminescence, mouse fibroblasts, counter-screen, dose response (AID 2010); format: functional, cell-based;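 further: cells exposed to compound for about 90 hours before reading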
[17] = Luminescence Cell-Based Dose Response HTS to Identify Activators of Luciferase Translation or Activity in H4 […] Cells. [Related pubchem assays: 1829 (Project Summary), 1814 (Primary HTS)]; format: functional
H4 = experiment: Luminescence Cell-Based Dose Response HTS to Identify Activators of 5'UTR Stem-Loop Driven Prion Protein mRNA Translation in H4 Neuroglioblastoma Cells. [Related pubchem assays: 1829 (Project Summary), 1814 (Primary HTS)]; format: functional; settings: Homo sapiens
Protein RecA = molecular target: T2, Protein RecA (Mycobacterium tuberculosis, UniProt P9WHJ3); experiment: Fluorescence Cell-Free Homogeneous Dose Retest to Identify Inhibitors of RecA-Intein Splicing Activity. [Related pubchem assays (depositor defined):AID2097, AID2223, AID489010, AID492950]; format: functional
T2 sequence (P9WHJ3 whole entry): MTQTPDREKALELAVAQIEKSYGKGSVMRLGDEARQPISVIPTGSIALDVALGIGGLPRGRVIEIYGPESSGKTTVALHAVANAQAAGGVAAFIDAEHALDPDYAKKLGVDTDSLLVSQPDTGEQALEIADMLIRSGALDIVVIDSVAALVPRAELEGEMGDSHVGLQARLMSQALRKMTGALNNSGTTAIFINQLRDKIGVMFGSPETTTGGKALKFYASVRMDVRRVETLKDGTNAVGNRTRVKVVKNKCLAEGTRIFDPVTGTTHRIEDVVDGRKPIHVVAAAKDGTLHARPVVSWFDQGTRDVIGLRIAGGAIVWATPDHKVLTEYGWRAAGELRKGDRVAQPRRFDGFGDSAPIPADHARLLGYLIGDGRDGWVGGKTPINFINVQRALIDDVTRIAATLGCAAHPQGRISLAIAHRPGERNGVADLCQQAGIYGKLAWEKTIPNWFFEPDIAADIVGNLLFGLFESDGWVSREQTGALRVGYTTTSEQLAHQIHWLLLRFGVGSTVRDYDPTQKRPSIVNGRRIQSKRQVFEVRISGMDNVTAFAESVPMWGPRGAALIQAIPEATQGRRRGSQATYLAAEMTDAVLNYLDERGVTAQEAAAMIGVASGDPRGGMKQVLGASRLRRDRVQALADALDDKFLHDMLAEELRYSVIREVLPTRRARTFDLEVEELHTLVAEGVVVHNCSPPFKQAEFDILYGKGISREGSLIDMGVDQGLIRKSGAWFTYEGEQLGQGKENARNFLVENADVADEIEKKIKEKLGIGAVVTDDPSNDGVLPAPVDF

[18] = Luminescence Cell-Based Dose Confirmation HTS to Identify Activators of 5'UTR Stem-Loop Driven Alpha-Synuclein mRNA Translation in H4 Neuroglioblastoma Cells. [Related pubchem assays: 1829 (Project Summary), 1814 (Primary HTS)]; format: functional
[19] = NIH-3T3 fibroblast cytotoxicity, dose response, cytotoxicity control, cell-based, fluorescence, Alamar Blue, secondary assay (AID 2327); format: functional;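 further: NIH-3T3 mouse fibroblasts cultured with fluconazole at 8 µg/mL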
[20] = molecular target: T3, Replicative DNA helicase DnaB (Mycobacterium tuberculosis, UniProt P9WMR3); experiment: DnaB intein splicing inhibitors, dose response, biochemical, cell-free fluorescence (AID 449749); format: functional
T3 sequence (P9WMR3 whole entry): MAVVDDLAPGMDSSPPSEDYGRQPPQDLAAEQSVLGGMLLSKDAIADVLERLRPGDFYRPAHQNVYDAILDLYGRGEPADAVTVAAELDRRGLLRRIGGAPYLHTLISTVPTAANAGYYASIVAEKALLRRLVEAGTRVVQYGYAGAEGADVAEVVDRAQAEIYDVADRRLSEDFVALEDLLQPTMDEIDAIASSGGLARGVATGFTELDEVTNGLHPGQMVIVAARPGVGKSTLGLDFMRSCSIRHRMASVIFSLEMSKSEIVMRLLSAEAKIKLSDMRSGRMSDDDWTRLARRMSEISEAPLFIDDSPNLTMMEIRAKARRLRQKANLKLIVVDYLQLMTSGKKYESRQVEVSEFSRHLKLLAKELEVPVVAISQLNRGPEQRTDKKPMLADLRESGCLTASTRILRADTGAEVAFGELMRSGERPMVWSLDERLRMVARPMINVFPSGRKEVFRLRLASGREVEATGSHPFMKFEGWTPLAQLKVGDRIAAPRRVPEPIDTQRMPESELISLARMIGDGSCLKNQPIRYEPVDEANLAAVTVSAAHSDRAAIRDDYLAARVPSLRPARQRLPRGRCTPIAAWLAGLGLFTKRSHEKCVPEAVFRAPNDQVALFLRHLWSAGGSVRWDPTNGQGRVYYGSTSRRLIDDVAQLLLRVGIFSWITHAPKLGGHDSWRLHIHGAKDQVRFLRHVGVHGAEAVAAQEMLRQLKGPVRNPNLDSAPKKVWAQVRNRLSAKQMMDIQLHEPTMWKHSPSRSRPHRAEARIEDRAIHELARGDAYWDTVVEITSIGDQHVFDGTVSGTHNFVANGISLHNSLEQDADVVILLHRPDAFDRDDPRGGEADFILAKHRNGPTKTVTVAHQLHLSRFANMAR

Sequence of Luciferin 4-monooxygenase (P08659 whole entry): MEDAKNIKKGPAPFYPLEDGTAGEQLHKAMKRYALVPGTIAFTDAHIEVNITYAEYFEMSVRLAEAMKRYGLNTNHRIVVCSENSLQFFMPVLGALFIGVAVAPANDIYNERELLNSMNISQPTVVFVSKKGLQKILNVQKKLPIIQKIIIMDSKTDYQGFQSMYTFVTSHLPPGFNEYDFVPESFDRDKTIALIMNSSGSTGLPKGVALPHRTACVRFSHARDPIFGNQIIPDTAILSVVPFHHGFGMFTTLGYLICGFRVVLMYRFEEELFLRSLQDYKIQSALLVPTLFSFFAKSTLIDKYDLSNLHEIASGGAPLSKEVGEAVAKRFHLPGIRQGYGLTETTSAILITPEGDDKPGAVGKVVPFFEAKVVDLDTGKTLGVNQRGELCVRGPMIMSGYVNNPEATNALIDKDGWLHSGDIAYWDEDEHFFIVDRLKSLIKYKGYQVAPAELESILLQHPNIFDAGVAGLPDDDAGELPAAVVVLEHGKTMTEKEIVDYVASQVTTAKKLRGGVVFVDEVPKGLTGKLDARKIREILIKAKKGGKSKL

In the case of `Oc1c(N=Nc2ccccc2)sc2ccccc12`, the EC50 [1] is reported as 15 µM (active), the EC50 [2] is reported as 1.26 µM (active) and the IC50 [3] is reported as > 67.5 µM (inactive). The EC50 [4] was > 67.5 µM (inactive), the EC50 [5] was > 67.5 µM (inactive) and the EC50 (cells) was > 67.5 µM (inactive).
With `Cc1ccccc1-c1nnn(Cc2ccc(F)cc2Cl)n1` the IC50 [6] was > 69.5 µM (inactive) and the IC50 [7] was > 69.5 µM (inactive).
With `CCOC(=O)C1CCN(C(=O)COC(=O)c2ccc([N+](=O)[O-])o2)CC1` the AC50 (Caspase-6) was 18.5 µM (active) and the AC50 [8] was 88.2 µM (active).
In the case of `Cc1ccc(Nc2nc(-c3ccccc3)cs2)nc1`, the AC50 [9] is reported as 13.3 µM (active), the AC50 [10] is reported as 37.4 µM (active) and the AC50 [11] is reported as 8.03 µM (active). For the same molecule, the AC50 [12] was > 52 µM (inactive), the EC50 [5] was > 67.5 µM (inactive) and the EC50 (cells) was > 67.5 µM (inactive).
For `O=C(OCn1ncc(Cl)c(Cl)c1=O)c1ccc(C(F)(F)F)cc1`, the AC50 [13] was 20.6 µM (active), the EC50 [14] was > 38 µM (not active) and the EC50 [15] was 1.92 µM (active). The EC50 [16] was 1.89 µM (active), the EC50 [17] was > 120 µM (not active) and the EC50 (H4) was > 120 µM (not active). For the same molecule, the EC50 (Protein RecA) was 0.308 µM (active), the EC50 [18] was > 120 µM (not active) and the EC50 [19] was 4.13 µM (inconclusive). The AC50 [20] was 1.23 µM (active).

Reference: ChEMBL document CHEMBL1201862, “PubChem BioAssay data set” (2004)
